From patent publication US10253002B2, “Compounds and methods of treating infections” (Neoculi Pty Ltd., priority 2013, dated 2019)
≈ marks a conversion by molar mass, not a printed value. Like-named read-outs stand apart in the source and are kept apart here.

How the values were obtained:
[1] = tested on: Salmonella arizonae; assay: Broth microdilution MIC, Example 7; format: cell-based; conditions: S. arizonae
Experimental: Minimum inhibitory concentrations (μg/ml) were determined using the broth microdilution method recommended by the Clinical and Laboratory Standards Institute (CLSI). […] Bacterial growth (turbidity) in the wells with antimicrobial was compared with the amount of growth (turbidity) in the growth-control well (containing no antimicrobial). All isolates were tested in duplicate, if there was a difference of greater than one two-fold dilution in the results, the test was repeated a third time. The purity of the isolates was closely monitored during testing by subculturing the prepared bacterial inoculum onto SBA (sheep blood agar). The MICs of the control strains for the antimicrobial ampicillin were determined for each testing run as an internal quality control. The MIC50, […] and MIC range (minimum and maximum) were calculated for each of the bacterial groups.

[2] = tested on: S. aureus clinical isolates (MRSA and MSSA); assay: Broth microdilution MIC, Example 4; format: cell-based, Staphylococcus aureus; conditions: for MIC / MIC50 / MIC90: Staphylococcus aureus; for MIC: 24 h
Experimental: Microtiter plates containing two-fold dilutions of each antimicrobial agent were inoculated with ˜10^5 CFU/ml of each isolate in a 100 μL final volume. Plates were incubated for 24 h at 37° C. Turbidity (absorbance at OD600) was measured using a Bio-Rad Benchmark Plus microplate spectrophotometer in Microplate Manager® version 5.2.1 (Bio-Rad). Minimum inhibitory concentration (MIC) endpoints were defined as the lowest antimicrobial concentration assessed by the spectrophotometer that inhibited bacterial growth. ATCC 49775 was included in the isolate collection as a control organism using breakpoints defined by the CLSI. The MIC50, MIC90 (concentrations that inhibited growth of the lower 50% and 90% of total organisms, respectively), and MIC range (minimum and maximum) were calculated to profile the antimicrobial susceptibility of the isolate collection.

[3] = tested on: methicillin-resistant Staphylococcus aureus (MRSA); assay: Broth microdilution MIC (CLSI), Example 1; format: cell-based
Experimental: Cation adjusted Mueller Hinton Broth (CAMHB) was prepared using 100 mL sterile Mueller Hinton broth (pH adjusted). To each 100 mL volume, 125 μL of calcium stock solution (10 mg Ca^2+ per ml) and 43 μL magnesium stock solution (10 mg Mg^2+ per mL) was aseptically added. Sufficient broth is made up for daily use, with unused portions being stored at 4° C. overnight.
Potency was described as 1000 mg/g or 100%. The powder was dissolved in 10 mL DMSO and 1 mL volumes were aliquoted into eppendorf tubes and stored at −80° C.
For Staphylococcus aureus, a working solution of 256 μg/mL was prepared by diluting stock solutions as described above 1:100 in CAMHB (100 μL into 9.9 mL).
Serial dilutions were prepared in 96 well plates were set up in a safety cabinet according to methods standard in the art. Briefly: 90 μL of the working antibiotic solution was added to each well in Column 12 of the plate, and mixed well, before 90 μL was transferred to column 11. The solutions were mixed again, and then transferred to the next column as before, continuing the dilutions through to column 3. Mixing the well requires the pick up and expulsion of 90 μL in each well 3-4 times before picking up and transferring the 90 μL to the next well. […] The trays were set up as follows: 2 strains were tested in duplicate in one tray, such that strain 1 was located in rows A to D, strain 2 was located in rows E to H, etc.
Fresh cultures of bacteria were prepared for testing on sheep blood agar (SBA), and overnight incubation at 37° C. as follows; 2-3 colonies of each strain in 7 mL sterile saline, and the OD600 measured as an indication of the density (approx. […] or 0.5 McFarland Standard). The bacterial suspension was adjusted to a final absorbance of 0.08 to 0.100, using saline to achieve correct density, and as the blank. Within 15 minutes of preparation, the adjusted bacterial suspension with sterile saline 1:20 (1 mL into 19 mL sterile saline) to achieve a final bacterial concentration of 4 to 5×10^6 CFU/mL. The bacterial solution was placed into a sterile trough and 10 μL of bacterial solution added into wells 2 through to 12 on each required row (dilution of 1:10, with final concentration of bacteria in wells=5×10^5 CFU/mL). The tray was sealed and incubated at 37° C. for 18-24 h. The purity of bacterial suspension was confirmed by streaking out 50 μL of the 1:20 dilution onto a SBA plate, which was incubated for 37° C. for 18 h and examined. Viable counts were carried out to ensure that the correct concentration of bacteria and been added to the wells. The diluted bacterial solution (4 to 5×10^6 CFU/mL) was diluted 1:10 downwards by adding 100 μL to 900 μL of sterile saline in sterile tubes, and the serial dilutions continued 1:10 for 5 tubes. 100 μL (4-5 drops) of the 4th and 5th dilutions (tube 4=105 and tube 5=10^6 CFU/ml) was plated around in duplicate on pre-dried PCA agar plates and incubated at 37° C. overnight. The following day the number of colonies on the plates was counted and the average count in 100 μL obtained. The study was multiplied by 10 to obtain a viable bacterial count per mL.
Minimum inhibitory concentrations (μg/mL) were determined using the broth microdilution method recommended by the Clinical and Laboratory Standards Institute (CLSI) (Methods for Dilution Antimicrobial Susceptibility Tests for Bacteria That Grow Aerobically; Approved Standard—Seventh Edition. CLSI M7-A7, 2006; Performance Standards for Antimicrobial Disk and Dilution Susceptibility Tests for Bacteria Isolated from Animals; Approved Standard—Second Edition. CLSI M31-A2, 2002; Performance Standards for Antimicrobial Susceptibility Testing; CLSI M2-A9, 2006).
MIC breakpoints were determined by visual assessment and then confirmed using an ELISA plate reader, measuring absorbance levels at 450 nm.

[4] = Methicillin-susceptible staphylococci (n = 10)
[5] = Total bacterial isolates (n = 30)

CC1(C)S[C@@H]2[C@H](NC(=O)[C@H](N)c3ccccc3)C(=O)N2[C@H]1C(=O)O [Ampicillin]
MIC ([1]; 2nd): 1 mg/L (≈ 2.86 µM) | MIC ([1]; Salmonella enterica, 1st, read-out: MIC): 1 mg/L (≈ 2.86 µM) | MICrange ([2]; CA-MRSA (n = 10)): 8 to 128 µg/mL | MICrange [2, 4]: 0.25-16^ μg/ml | MIC ([2]; read-out: Observed MIC at 24-h, MRSA580, present study): > 128 mg/L | MIC ([2]; read-out: Observed MIC at 24-h, MRSA698, present study): 16 mg/L (≈ 45.8 µM) | MIC ([2]; read-out: Original MIC at 24-h, MRSA580, preliminary studies): > 128 mg/L | MIC ([2]; read-out: Original MIC at 24-h, MRSA698, preliminary studies): 16 mg/L (≈ 45.8 µM) | MIC ([2]; ATCC 49775 / MRSA / MSSA, read-out: Observed MIC at 24-h, ATCC 49775, present study): 0.25 mg/L (≈ 0.715 µM) | MIC50 ([2]; CA-MRSA (n = 10)): 64 mg/L (≈ 183 µM) | MIC90 ([2]; CA-MRSA (n = 10)): 128 mg/L (≈ 366 µM) | MIC50 ([2]; HA-MRSA (n = 10)): 64 mg/L (≈ 183 µM) | MIC90 ([2]; HA-MRSA (n = 10)): > 128 mg/L | MIC50 [2, 4]: 0.25 mg/L (≈ 0.715 µM) | MIC90 [2, 4]: 8 mg/L (≈ 22.9 µM) | MIC50 [2, 5]: 16 mg/L (≈ 45.8 µM) | MIC90 [2, 5]: 128 mg/L (≈ 366 µM) | MIC90 ([3]; MRSA, 21 isolates): > 128 mg/L | MIC90 ([3]; MRSA, Staphylococcus aureus isolates of Table 3, Test 1, read-out: MIC90): > 128 mg/L | MIC90 ([3]; Staphylococcus aureus isolates of Table 3, Test 2): >128 mg/L | MIC ([3]; Staphylococcus aureus, ATCC 29213 / MRSA, S. aureus strain ATCC 29213, read-out: MIC of control strain (internal quality control)): 2 mg/L | MIC ([3]; Staphylococcus aureus, ATCC 29213 / MRSA, Staph. aureus ATCC 29213, Test 1, read-out: MIC): 2 mg/L (≈ 5.72 µM) | MIC ([3]; Staphylococcus aureus, ATCC 29213 / MRSA, Staph. aureus ATCC 29213, Test 2, read-out: MIC): 2 mg/L (≈ 5.72 µM) | MIC ([3]; Staphylococcus aureus, MRSA, 21 isolates, read-out: MIC mode): > 128 mg/L | MIC ([3]; Staphylococcus aureus, MRSA, MRSA 516, Test 1, read-out: MIC): 32 mg/L (≈ 91.6 µM) | MIC ([3]; Staphylococcus aureus, MRSA, MRSA 516, Test 2, read-out: MIC): 32 mg/L (≈ 91.6 µM) | MIC ([3]; Staphylococcus aureus, MRSA, MRSA 570, Test 1, read-out: MIC): > 128 mg/L | MIC ([3]; Staphylococcus aureus, MRSA, MRSA 570, Test 2, read-out: MIC): > 128 mg/L | MIC ([3]; Staphylococcus aureus, MRSA, MRSA 580, Test 1, read-out: MIC): > 128 mg/L | MIC ([3]; Staphylococcus aureus, MRSA, MRSA 580, Test 2, read-out: MIC): > 128 mg/L | MIC ([3]; Staphylococcus aureus, MRSA, MRSA 606, Test 1, read-out: MIC): 32 mg/L (≈ 91.6 µM) | MIC ([3]; Staphylococcus aureus, MRSA, MRSA 606, Test 2, read-out: MIC): 32 mg/L (≈ 91.6 µM) | MIC ([3]; Staphylococcus aureus, MRSA, MRSA 610, Test 1, read-out: MIC): 128 mg/L (≈ 366 µM) | MIC ([3]; Staphylococcus aureus, MRSA, MRSA 610, Test 2, read-out: MIC): 128 mg/L (≈ 366 µM) | MIC ([3]; Staphylococcus aureus, MRSA, MRSA 616, Test 1, read-out: MIC): 64 mg/L (≈ 183 µM) | MIC ([3]; Staphylococcus aureus, MRSA, MRSA 616, Test 2, read-out: MIC): 64 mg/L (≈ 183 µM) | MIC ([3]; Staphylococcus aureus, MRSA, MRSA 622, Test 1, read-out: MIC): 64 mg/L (≈ 183 µM) | MIC ([3]; Staphylococcus aureus, MRSA, MRSA 622, Test 2, read-out: MIC): 64 mg/L (≈ 183 µM) | MIC ([3]; Staphylococcus aureus, MRSA, MRSA 698, Test 1, read-out: MIC): 64 mg/L (≈ 183 µM) | MIC ([3]; Staphylococcus aureus, MRSA, MRSA 698, Test 2, read-out: MIC): 64 mg/L (≈ 183 µM) | MIC ([3]; Staphylococcus aureus, MRSA, MRSA 713, Test 1, read-out: MIC): > 128 mg/L | MIC ([3]; Staphylococcus aureus, MRSA, MRSA 713, Test 2, read-out: MIC): > 128 mg/L | MIC ([3]; Staphylococcus aureus, MRSA, MRSA 718, Test 1, read-out: MIC): > 128 mg/L | MIC ([3]; Staphylococcus aureus, MRSA, MRSA 718, Test 2, read-out: MIC): > 128 mg/L | MIC ([3]; Staphylococcus aureus, MRSA, MRSA 728, Test 1, read-out: MIC): 64 mg/L (≈ 183 µM) | MIC ([3]; Staphylococcus aureus, MRSA, MRSA 728, Test 2, read-out: MIC): 64 mg/L (≈ 183 µM) | MIC ([3]; Staphylococcus aureus, MRSA, MRSA 734, Test 1, read-out: MIC): > 128 mg/L | MIC ([3]; Staphylococcus aureus, MRSA, MRSA 734, Test 2, read-out: MIC): > 128 mg/L | MIC ([3]; Staphylococcus aureus, MRSA, MRSA 741, Test 1, read-out: MIC): 8 mg/L (≈ 22.9 µM) | MIC ([3]; Staphylococcus aureus, MRSA, MRSA 741, Test 2, read-out: MIC): 8 mg/L (≈ 22.9 µM) | MIC ([3]; Staphylococcus aureus, MRSA, MRSA 747, Test 1, read-out: MIC): > 128 mg/L | MIC ([3]; Staphylococcus aureus, MRSA, MRSA 747, Test 2, read-out: MIC): > 128 mg/L | MIC ([3]; Staphylococcus aureus, MRSA, MRSA 773, Test 1, read-out: MIC): 128 mg/L (≈ 366 µM) | MIC ([3]; Staphylococcus aureus, MRSA, MRSA 773, Test 2, read-out: MIC): 64 mg/L (≈ 183 µM) | MIC ([3]; Staphylococcus aureus, MRSA, MRSA 778, Test 1, read-out: MIC): > 128 mg/L | MIC ([3]; Staphylococcus aureus, MRSA, MRSA 778, Test 2, read-out: MIC): > 128 mg/L | MIC ([3]; Staphylococcus aureus, MRSA, MRSA 786, Test 1, read-out: MIC): 32 mg/L (≈ 91.6 µM) | MIC ([3]; Staphylococcus aureus, MRSA, MRSA 786, Test 2, read-out: MIC): 64 mg/L (≈ 183 µM) | MIC ([3]; Staphylococcus aureus, MRSA, MRSA 787, Test 1, read-out: MIC): > 128 mg/L | MIC ([3]; Staphylococcus aureus, MRSA, MRSA 787, Test 2, read-out: MIC): > 128 mg/L | MIC ([3]; Staphylococcus aureus, MRSA, MRSA 815, Test 1, read-out: MIC): 64 mg/L (≈ 183 µM) | MIC ([3]; Staphylococcus aureus, MRSA, MRSA 815, Test 2, read-out: MIC): 64 mg/L (≈ 183 µM) | MIC ([3]; Staphylococcus aureus, MRSA, MRSA 823, Test 1, read-out: MIC): > 128 mg/L | MIC ([3]; Staphylococcus aureus, MRSA, MRSA 823, Test 2, read-out: MIC): > 128 mg/L | MIC ([3]; Staphylococcus aureus, MRSA, MRSA 844, Test 1, read-out: MIC): 128 mg/L (≈ 366 µM) | MIC ([3]; Staphylococcus aureus, MRSA, MRSA 844, Test 2, read-out: MIC): 128 mg/L (≈ 366 µM) | MIC50 ([3]; Staphylococcus aureus, MRSA, 21 isolates): 64 mg/L (≈ 183 µM)
